Series [1] concerns LLC tumors. As to the kind of experiment: In vivo antitumor activity test, LLC tumors in mice. Details: Tumor inhibition rate: concentration or dose not given beside the values. The conditions noted are these: LLC tumors in C57BL6 mice, once per day, 21 days; for Tumor weight: CTX intraperitoneal 150 mg·kg^−1, compounds intragastric; for Tumor inhibition rate: from average tumor weight vs model group.

The conditions of series [2]: mouse, in vivo.
For series [3], the system named is mice with Alzheimer (AD model). Nature of the series: Morris water maze detection of behavioral changes in mice with Alzheimer. The class given is in vivo. The conditions noted are these: for Number of stays / Time of stay: spatial probe test, sixth day. As to the method: Mouse behavioral analysis was performed using a Morris water maze (Ethovision XT monitoring and analysis software, Morris water maze system, from Noldus, Netherlands). The water maze test process was divided into two parts, hidden platform acquisition test for consecutive 5 days, and spatial probe test on the sixth day, the mice were administered according to the test groups and the design doses before each test. The mice were trained 4 times a day, each time the mice were dived in different areas, the water maze was divided into areas 1, 2, 3 and 4 according to the south, east, north and west, and the platform was the 5th area located in the 4th area. […] The hidden platform acquisition test was used to detect the learning ability of mice, while the spatial probe test was used to detect the spatial memory ability of mice.
Using the statistical analysis software SPSS16.0, the escape latent period of the hidden platform acquisition test was analyzed by variance of multiple measures; and the swimming time in each quadrant and the number of crossing target in the spatial probe test were analyzed by one-way analysis of variance. The data were expressed as mean±standard deviation, and the significant level of difference was set as bilateral P=0.05.

Series [4] concerns the target T1, human indoleamine 2,3-dioxygenase (Homo sapiens, UniProt P14902).
T1 construct: made in house; host or cells: E. coli
As to the kind of experiment: Determination of the activity for inhibiting indoleamine 2,3-dioxygenase and IC50. The class given is biochemical. The conditions noted are these: purified human IDO, 200 μM L-tryptophan, 37° C., 60 minutes, pH 6.5.

The subject of series [5] is DC-stimulated T cell proliferation. Nature of the series: DC-stimulated T cell proliferation assay (MLR). In kind it is cell-based, human. The conditions noted are these: MTT, A570 nm, 72 hours. As to the method:
The human peripheral blood leukocyte layer was taken and diluted with same volume of 0.01 mol/L PBS. PBMC was routinely isolated with a lymphocyte separation medium, and the cell concentration was adjusted to 3×10^6 ml^−1 in a complete RPMI1640 medium; the cells were added to a 6-well plate, 3 ml per well, and cultured in a 5% CO2, 37° C. incubator for 2 hours, washed with PBS for 3 times to remove non-adherent cells, then added with a culture medium containing IL-4 (100 U/ml), GM-CSF (150 ng/ml) and TNF-α (500 U/ml), and then routinely cultured, the medium was changed for half every other day. After 8 days of culture, the cells were used for identification and experiment.
The human PBMC layer was separated by the method in the step 1. The macrophages were removed by the adherence method, the B cells were removed by the nylon wool fiber syringe method, and the obtained T cells were adjusted to a cell concentration of 1×10^6 cells/ml.
The mature DCs with a purity of 99% were centrifuged, added with RPMI1640 to adjust the cell concentration to 1×10^5, 4×10^4, 2×10^4/ml, and added to a 96-well plate, two wells for each concentration, 100 μl/well.
T cells were added to DCs of each of the above drug-added groups, 100 μl/well, cultured in a 5% CO2, 37° C. incubator for 72 hours; for each well, 100 μl of the culture solution was gently sucked out 6 hours before the end of the culture, and 10 μl of MTT (5 mg/ml) was added, further cultured in incubator for 6 hours, then 100 μl of 0.01 mol/L HCl-10% SDS was added, stood at 37° C. overnight, and the absorbance value (A570 nm) was determined by a microplate to show the T cell proliferation level.

T1 sequence (P14902 whole entry): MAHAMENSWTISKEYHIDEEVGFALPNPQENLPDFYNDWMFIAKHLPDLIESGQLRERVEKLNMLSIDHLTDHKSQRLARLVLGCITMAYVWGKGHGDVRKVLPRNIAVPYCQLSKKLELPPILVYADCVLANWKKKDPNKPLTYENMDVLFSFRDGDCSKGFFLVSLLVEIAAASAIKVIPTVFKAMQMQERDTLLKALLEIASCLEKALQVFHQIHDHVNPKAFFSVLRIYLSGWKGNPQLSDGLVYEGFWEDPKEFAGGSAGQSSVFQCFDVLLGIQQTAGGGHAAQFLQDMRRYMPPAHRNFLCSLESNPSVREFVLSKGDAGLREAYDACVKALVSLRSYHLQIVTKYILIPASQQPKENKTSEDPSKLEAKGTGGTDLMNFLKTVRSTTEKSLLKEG

One may read the IC50 as the concentration that inhibits the measured activity by half. As for `N=C(N)NCCNc1nonc1/C(=N/O)Nc1ccc(F)c(Br)c1` [Example 3047], in series [1], the Tumor weight is recorded as 0.370 ± 0.209^##※ g. In series [1], this compound gave a Tumor inhibition rate of 75.6%. Moreover, the “Average body weight before test” value in series [2] is reported as 22 ± 3.4 g. The “Latent period for searching platform in hidden platform test” value (from here on “Latent period for searching platform”) in series [3] (1st Day) was 52.3 ± 5.2 s; in series [3] (2nd Day), 44.0 ± 4.4 s; in series [3] (3th Day), 22.1 ± 4.5^##※ s; in series [3] (4th Day), 10.5 ± 5.7^##※ s; in series [3] (5th Day) it was 5.4 ± 6.0^##※※ s. Moreover, the values for the Number of stays in series [3] (4th Area) and in series [3] (5th Area (platform)) were 13.0 ± 1.5^##※ times and 3.8 ± 0.6^##※ times, respectively. In addition, the Time of stay in series [3] (4th Area) is 25.9 ± 5.2^##※ s; in series [3] (5th Area (platform)), 5.9 ± 0.7^##※ s. In addition, in series [4], the IC50 came to 0.037 µM. In addition, the “T:DC (absorbance value)” value was 0.864 ± 0.006^##※ in series [5] (T:DC 10:1), 0.834 ± 0.004^##※ in series [5] (T:DC 25:1) and 0.825 ± 0.007^##※ in series [5] (T:DC 50:1).
The compound `N=C(N)NCCCNc1nonc1/C(=N/O)Nc1ccc(F)c(Br)c1` [Example 3048] displayed an IC50 in series [4] of 0.02 µM.
In the case of `CNC(=N)NCCNc1nonc1/C(=N/O)Nc1ccc(F)c(Br)c1` [Example 3049], in series [4], the half-maximal inhibitory concentration (IC50) is 0.022 µM.
Regarding `CC(C)(C)OC(=O)N=C(NCCNc1nonc1/C(=N/O)Nc1ccc(F)c(Br)c1)NC(=O)OC(C)(C)C` [Example 3051], the concentration for half-maximal inhibition (IC50) in series [4] was 0.023 µM.
As for `CC(C)(C)OC(=O)N=C(N)NCCCNc1nonc1/C(=N/O)Nc1ccc(F)c(Br)c1` [Example 3053], the IC50 in series [4] came out at 0.016 µM.
For `NS(=O)(=O)NCCNc1nonc1C(=Nc1ccc(F)c(Br)c1)NO` [INCB024360, reference compound], the Tumor weight in series [1] was 0.653 ± 0.178 g. Moreover, in series [1], the Tumor inhibition rate was found to be 56.9%. The “Latent period for searching platform” value stood at 53.2 ± 2.3 s in series [3] (1st Day); 51.4 ± 4.8 s in series [3] (2nd Day); 38.6 ± 5.5 s in series [3] (3th Day); 28.7 ± 3.9 s in series [3] (4th Day); 19.9 ± 6.7 s in series [3] (5th Day). For the same compound, the values for the Number of stays in series [3] (4th Area) and in series [3] (5th Area (platform)) were 8.4 ± 1.0 times and 2.1 ± 0.4 times, respectively. The Time of stay in series [3] (4th Area) came to 16.2 ± 2.4 s; in series [3] (5th Area (platform)), 3.9 ± 0.7 s. The “T:DC (absorbance value)” value in series [5] (T:DC 10:1) is given as 0.830 ± 0.002; in series [5] (T:DC 25:1) it was 0.804 ± 0.004; in series [5] (T:DC 50:1), 0.799 ± 0.003.
Compound `CCC(=O)NC(=N)NCCNc1nonc1/C(=N/O)Nc1ccc(F)c(Br)c1` [XSD3-052] returned a half-maximal inhibitory concentration (IC50) in series [4] of 0.343 µM.
Regarding `N=C(NCCNc1nonc1/C(=N/O)Nc1ccc(F)c(Br)c1)NS(=O)(=O)c1ccccc1` [XSD3-058], the Tumor weight in series [1] was 0.400 ± 0.112 g. Also, the Tumor inhibition rate in series [1] amounted to 72.3%. In addition, the “body weight compared with the model group” value in series [2] is on record as “no significant difference in body weight”. Besides, the “Latent period for searching platform” value amounted to 45.3 ± 3.7 s in series [3] (1st Day); 41.3 ± 3.2 s in series [3] (2nd Day); 25.4 ± 4.6 s in series [3] (3th Day); 15.5 ± 4.9 s in series [3] (4th Day); 7.3 ± 6.1 s in series [3] (5th Day). Further, the Number of stays turned out to be 13.3 ± 1.8 times in series [3] (4th Area) and 3.5 ± 0.9 times in series [3] (5th Area (platform)). Besides, the Time of stay stood at 25.2 ± 4.2 s in series [3] (4th Area) and 5.9 ± 0.6 s in series [3] (5th Area (platform)). The compound further yielded an IC50 in series [4] of 0.057 µM. For the same compound, the “T:DC (absorbance value)” value in series [5] (T:DC 10:1) worked out at 0.880 ± 0.003; in series [5] (T:DC 25:1) it was 0.849 ± 0.002; in series [5] (T:DC 50:1) it was 0.831 ± 0.002.
Turning to `N/C(=N\C(=O)C1CC1)NCCNc1nonc1/C(=N/O)Nc1ccc(F)c(Br)c1` [XSD3-065], the concentration for half-maximal inhibition (IC50) in series [4] is 0.118 µM.
Same read-out and setting: for `N/C(=N\C(=O)C1CCC1)NCCNc1nonc1/C(=N/O)Nc1ccc(F)c(Br)c1` [XSD3-066] the value was 0.132 µM; for `N/C(=N\C(=O)C1CCCC1)NCCNc1nonc1/C(=N/O)Nc1ccc(F)c(Br)c1` [XSD3-067], 0.142 µM; for `N/C(=N\C(=O)C1CCCCC1)NCCNc1nonc1/C(=N/O)Nc1ccc(F)c(Br)c1` [XSD3-068], 0.539 µM.
In series [4], `N/C(=N\C(=O)CC1CC1)NCCNc1nonc1/C(=N/O)Nc1ccc(F)c(Br)c1` [XSD3-069] yielded an IC50 of 0.345 µM.
On to `N/C(=N/C(=O)CC1CCC1)NCCNc1nonc1/C(=N/O)Nc1ccc(F)c(Br)c1` [XSD3-070], for which the IC50 in series [4] worked out at 0.345 µM.
For the compound `N/C(=N\C(=O)CC1CCCCC1)NCCNc1nonc1/C(=N/O)Nc1ccc(F)c(Br)c1` [XSD3-072], the midpoint of inhibition in series [4], the IC50, lay at 0.502 µM.
`N/C(=N\S(=O)(=O)c1ccccc1)NCCCNc1nonc1/C(=N/O)Nc1ccc(F)c(Br)c1` [XSD3-074] had an IC50 in series [4] of 0.063 µM.
In series [4], `N/C(=N\C(=O)C1CCCCC1)NCCCNc1nonc1/C(=N/O)Nc1ccc(F)c(Br)c1` [XSD3-078] yielded an IC50 of 0.145 µM.
Turning to `N/C(=N\C(=O)C1CCCC1)NCCCNc1nonc1/C(=N/O)Nc1ccc(F)c(Br)c1` [XSD3-080], the concentration for half-maximal inhibition (IC50) in series [4] worked out at 0.087 µM.
Same read-out and setting: for `N/C(=N\C(=O)CC1CC1)NCCCNc1nonc1/C(=N/O)Nc1ccc(F)c(Br)c1` [XSD3-081] the value was 0.089 µM; for `N/C(=N\C(=O)CC1CCC1)NCCCNc1nonc1/C(=N/O)Nc1ccc(F)c(Br)c1` [XSD3-082], 0.101 µM.
Still for that read-out and setting: to `N/C(=N\C(=O)CC1CCCCC1)NCCCNc1nonc1/C(=N/O)Nc1ccc(F)c(Br)c1` [XSD3-084] belongs 0.16 µM; to `N/C(=N\S(=O)(=O)CC1CCCCC1)NCCCNc1nonc1/C(=N/O)Nc1ccc(F)c(Br)c1` [XSD3-088], 0.072 µM; to `N/C(=N\S(=O)(=O)CC1CCCCC1)NCCNc1nonc1/C(=N/O)Nc1ccc(F)c(Br)c1` [XSD3-089], 0.067 µM.
Compound `N/C(=N\C(=O)Cc1ccccc1)NCCNc1nonc1/C(=N/O)Nc1ccc(F)c(Br)c1` [XSD3-092] yielded an IC50 in series [4] of 0.399 µM.
On the same count and under the same terms, for `N/C(=N\C(=O)Cc1ccc(Cl)cc1)NCCCNc1nonc1/C(=N/O)Nc1ccc(F)c(Br)c1` [XSD3-093-1] the value was 0.056 µM; for `N/C(=N\C(=O)Cc1ccc(F)cc1)NCCCNc1nonc1/C(=N/O)Nc1ccc(F)c(Br)c1` [XSD3-093-2], 0.061 µM.
Same read-out and setting: to `COc1ccc(CC(=O)/N=C(\N)NCCCNc2nonc2/C(=N/O)Nc2ccc(F)c(Br)c2)cc1` [XSD3-093-3] belongs 0.076 µM.
In series [4], `N/C(=N\C(=O)Cc1ccccc1)NCCCNc1nonc1/C(=N/O)Nc1ccc(F)c(Br)c1` [XSD3-093] came in with an IC50 of 0.044 µM.

Source of the values: patent publication US20200325109A1, “IMINO-UREA DERIVATIVES” (Lunan Pharmaceutical Group Corporation, priority 2017, published 2020).
